Test results taken from PubChem BioAssay (NCI).
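Five compound concentrations were applied to cells in 96-well plates for 48 hours; endpoints were derived by simple linear interpolation of the resulting dose-response curve. Definition used: TGI = concentration required for complete inhibition of growth.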

Columns and labels:
Experiment in all cases: NCI-60 cell line screen, 48 h
786-0 renal = system: 786-0 renal
A498 renal = system: A498 renal
A549 NSCLC = system: A549 NSCLC
ACHN renal = system: ACHN renal
BT-549 breast = system: BT-549 breast
CAKI-1 renal = system: CAKI-1 renal
CCRF-CEM leukemia = system: CCRF-CEM leukemia
COLO 205 colon = system: COLO 205 colon
DU-145 prostate = system: DU-145 prostate
EKVX NSCLC = system: EKVX NSCLC
HCC-2998 colon = system: HCC-2998 colon
HCT-116 colon = system: HCT-116 colon
HCT-15 colon = system: HCT-15 colon
HL-60(TB) leukemia = system: HL-60(TB) leukemia
HOP-62 NSCLC = system: HOP-62 NSCLC
HOP-92 NSCLC = system: HOP-92 NSCLC
HS 578T breast = system: HS 578T breast
HT29 colon = system: HT29 colon
IGROV1 ovarian = system: IGROV1 ovarian
K-562 leukemia = system: K-562 leukemia
KM12 colon = system: KM12 colon
LOX IMVI melanoma = system: LOX IMVI melanoma
M14 melanoma = system: M14 melanoma
MALME-3M melanoma = system: MALME-3M melanoma
MCF7 breast = system: MCF7 breast
MDA-MB-231 breast = system: MDA-MB-231 breast
MDA-MB-435 = system: MDA-MB-435
MDA-N = system: MDA-N
MOLT-4 leukemia = system: MOLT-4 leukemia
NCI-H226 lung = system: NCI-H226 lung
NCI-H23 lung = system: NCI-H23 lung
NCI-H460 lung = system: NCI-H460 lung
NCI/ADR-RES ovarian = system: NCI/ADR-RES ovarian
OVCAR-3 ovarian = system: OVCAR-3 ovarian
OVCAR-4 ovarian = system: OVCAR-4 ovarian
OVCAR-5 ovarian = system: OVCAR-5 ovarian
OVCAR-8 ovarian = system: OVCAR-8 ovarian
PC-3 prostate = system: PC-3 prostate
RPMI-8226 leukemia = system: RPMI-8226 leukemia
RXF 393 renal = system: RXF 393 renal
SF-268 CNS = system: SF-268 CNS
SF-295 CNS = system: SF-295 CNS
SF-539 CNS = system: SF-539 CNS
SK-MEL-2 melanoma = system: SK-MEL-2 melanoma
SK-MEL-28 melanoma = system: SK-MEL-28 melanoma
SK-MEL-5 melanoma = system: SK-MEL-5 melanoma
SK-OV-3 ovarian = system: SK-OV-3 ovarian
SN12C renal = system: SN12C renal
SNB-19 CNS = system: SNB-19 CNS
SNB-75 CNS = system: SNB-75 CNS
SR leukemia = system: SR leukemia
SW-620 colon = system: SW-620 colon
T-47D breast = system: T-47D breast
TK-10 renal = system: TK-10 renal
U251 CNS = system: U251 CNS
UACC-257 melanoma = system: UACC-257 melanoma
UACC-62 melanoma = system: UACC-62 melanoma
UO-31 renal = system: UO-31 renal
NCI-H522 lung = system: NCI-H522 lung

In the case of `Cc1cc([C@H](C#N)c2nc3ccccc3s2)nc(Cl)n1`, the TGI (786-0 renal) is reported as 29.8 µM, the TGI (A498 renal) is reported as 31.3 µM and the TGI (A549 NSCLC) is reported as > 100 µM. It also gave a TGI (ACHN renal) of 78.5 µM, a TGI (BT-549 breast) of 35.6 µM and a TGI (CAKI-1 renal) of 31 µM. For the same molecule, the TGI (CCRF-CEM leukemia) was > 100 µM, the TGI (COLO 205 colon) was 6.49 µM and the TGI (DU-145 prostate) was 91.7 µM. It also gave a TGI (EKVX NSCLC) of 59.4 µM, a TGI (HCC-2998 colon) of 16.3 µM and a TGI (HCT-116 colon) of 15.3 µM. For the same molecule, the TGI (HCT-15 colon) was 16.3 µM, the TGI (HL-60(TB) leukemia) was > 100 µM and the TGI (HOP-62 NSCLC) was > 100 µM. For the same molecule, the TGI (HOP-92 NSCLC) was 8.76 µM, the TGI (HS 578T breast) was 33.3 µM and the TGI (HT29 colon) was 21.4 µM. For the same molecule, the TGI (IGROV1 ovarian) was 23.3 µM, the TGI (K-562 leukemia) was > 100 µM and the TGI (KM12 colon) was 9.08 µM. It also gave a TGI (LOX IMVI melanoma) of 10.4 µM, a TGI (M14 melanoma) of 79.2 µM and a TGI (MALME-3M melanoma) of 17 µM. The TGI (MCF7 breast) was > 100 µM, the TGI (MDA-MB-231 breast) was 11 µM and the TGI (MDA-MB-435) was 19.6 µM. The TGI (MDA-N) was > 100 µM, the TGI (MOLT-4 leukemia) was > 100 µM and the TGI (NCI-H226 lung) was 35.1 µM. It also gave a TGI (NCI-H23 lung) of 15 µM, a TGI (NCI-H460 lung) of 15.3 µM and a TGI (NCI/ADR-RES ovarian) of 10.8 µM. For the same molecule, the TGI (OVCAR-3 ovarian) was > 100 µM, the TGI (OVCAR-4 ovarian) was > 100 µM and the TGI (OVCAR-5 ovarian) was > 100 µM. For the same molecule, the TGI (OVCAR-8 ovarian) was 14.3 µM, the TGI (PC-3 prostate) was > 100 µM and the TGI (RPMI-8226 leukemia) was 15.6 µM. The TGI (RXF 393 renal) was > 100 µM, the TGI (SF-268 CNS) was 24 µM and the TGI (SF-295 CNS) was > 100 µM. For the same molecule, the TGI (SF-539 CNS) was 64 µM, the TGI (SK-MEL-2 melanoma) was > 100 µM and the TGI (SK-MEL-28 melanoma) was 39.1 µM. The TGI (SK-MEL-5 melanoma) was 45.9 µM, the TGI (SK-OV-3 ovarian) was 56.5 µM and the TGI (SN12C renal) was > 100 µM. For the same molecule, the TGI (SNB-19 CNS) was > 100 µM, the TGI (SNB-75 CNS) was 6.54 µM and the TGI (SR leukemia) was > 100 µM. The TGI (SW-620 colon) was 15.1 µM, the TGI (T-47D breast) was 31.6 µM and the TGI (TK-10 renal) was 44.1 µM. It also gave a TGI (U251 CNS) of 12.4 µM, a TGI (UACC-257 melanoma) of 22.4 µM and a TGI (UACC-62 melanoma) of 20.5 µM. For the same molecule, the TGI (UO-31 renal) was 21.3 µM.

`CC(CCC(=O)O)(c1cc(Br)c(O)c(Br)c1)c1cc(Br)c(O)c(Br)c1` was tested, and the TGI (786-0 renal) was > 100 µM, the TGI (A498 renal) was 87.7 µM and the TGI (A549 NSCLC) was > 100 µM. The TGI (ACHN renal) was > 100 µM, the TGI (BT-549 breast) was > 100 µM and the TGI (CAKI-1 renal) was > 100 µM. For the same molecule, the TGI (CCRF-CEM leukemia) was > 100 µM, the TGI (COLO 205 colon) was > 100 µM and the TGI (DU-145 prostate) was > 100 µM. The TGI (EKVX NSCLC) was > 100 µM, the TGI (HCC-2998 colon) was 86.3 µM and the TGI (HCT-116 colon) was > 100 µM. For the same molecule, the TGI (HCT-15 colon) was > 100 µM, the TGI (HL-60(TB) leukemia) was > 100 µM and the TGI (HOP-62 NSCLC) was > 100 µM. For the same molecule, the TGI (HOP-92 NSCLC) was > 100 µM, the TGI (HS 578T breast) was > 100 µM and the TGI (HT29 colon) was > 100 µM. For the same molecule, the TGI (IGROV1 ovarian) was > 100 µM, the TGI (K-562 leukemia) was > 100 µM and the TGI (KM12 colon) was > 100 µM. The TGI (LOX IMVI melanoma) was > 100 µM, the TGI (M14 melanoma) was > 100 µM and the TGI (MALME-3M melanoma) was > 100 µM. For the same molecule, the TGI (MCF7 breast) was > 100 µM, the TGI (MDA-MB-231 breast) was > 100 µM and the TGI (MDA-MB-435) was > 100 µM. For the same molecule, the TGI (MDA-N) was > 100 µM, the TGI (MOLT-4 leukemia) was > 100 µM and the TGI (NCI-H226 lung) was > 100 µM. The TGI (NCI-H23 lung) was > 100 µM, the TGI (NCI-H460 lung) was > 100 µM and the TGI (NCI-H522 lung) was > 100 µM. The TGI (NCI/ADR-RES ovarian) was > 100 µM, the TGI (OVCAR-3 ovarian) was > 100 µM and the TGI (OVCAR-4 ovarian) was > 100 µM. The TGI (OVCAR-5 ovarian) was > 100 µM, the TGI (OVCAR-8 ovarian) was > 100 µM and the TGI (PC-3 prostate) was > 100 µM. For the same molecule, the TGI (RPMI-8226 leukemia) was > 100 µM, the TGI (RXF 393 renal) was > 100 µM and the TGI (SF-268 CNS) was > 100 µM. The TGI (SF-295 CNS) was > 100 µM, the TGI (SF-539 CNS) was > 100 µM and the TGI (SK-MEL-2 melanoma) was > 100 µM. For the same molecule, the TGI (SK-MEL-28 melanoma) was > 100 µM, the TGI (SK-MEL-5 melanoma) was 88.3 µM and the TGI (SK-OV-3 ovarian) was > 100 µM. For the same molecule, the TGI (SN12C renal) was > 100 µM, the TGI (SNB-19 CNS) was > 100 µM and the TGI (SNB-75 CNS) was > 100 µM. For the same molecule, the TGI (SR leukemia) was > 100 µM, the TGI (SW-620 colon) was > 100 µM and the TGI (T-47D breast) was > 100 µM. The TGI (TK-10 renal) was > 100 µM, the TGI (U251 CNS) was > 100 µM and the TGI (UACC-257 melanoma) was > 100 µM. For the same molecule, the TGI (UACC-62 melanoma) was > 100 µM and the TGI (UO-31 renal) was > 100 µM.
